The record followed here is patent publication US8946282B2, “Indolin-2-one derivatives as protein kinase inhibitors” (Annji Pharmaceutical Co., Ltd., priority 2012, dated 2015).

Data set [1] relates to MV4-11 human acute myelomonocytic leukemia cells. As to the kind of experiment: anti-proliferation, SRB colorimetric assay, MV4-11. The format is cell-based. As to conditions: concentration required for 50% growth inhibition. On the procedure:
HCT116 human colorectal carcinoma cells (Table 3), HepG2 human hepatocellular carcinoma cells (Table 4), and MV4-11 human acute myelomonocytic leukemia cells (Table 5). Cells were treated with the test compound and the concentration required for 50% growth inhibition (IC50) determined by sulfomodamine B (SRB) colorimetric assay.
On the technique in general: The SRB assay estimates cell density from bound dye.

For data set [2], the system named is HepG2 human hepatocellular carcinoma cells. Nature of the data set: anti-proliferation, SRB colorimetric assay, HepG2. The class given is cell-based. As to conditions: concentration required for 50% growth inhibition, read-out: IC50 (μM, mean ± S.D.). The text has this:
HCT116 human colorectal carcinoma cells (Table 3), HepG2 human hepatocellular carcinoma cells (Table 4), and MV4-11 human acute myelomonocytic leukemia cells (Table 5).

Data set [3] deals with T1, FLT-3 (Homo sapiens, UniProt P36888).
T1 sequence (P36888 27-993): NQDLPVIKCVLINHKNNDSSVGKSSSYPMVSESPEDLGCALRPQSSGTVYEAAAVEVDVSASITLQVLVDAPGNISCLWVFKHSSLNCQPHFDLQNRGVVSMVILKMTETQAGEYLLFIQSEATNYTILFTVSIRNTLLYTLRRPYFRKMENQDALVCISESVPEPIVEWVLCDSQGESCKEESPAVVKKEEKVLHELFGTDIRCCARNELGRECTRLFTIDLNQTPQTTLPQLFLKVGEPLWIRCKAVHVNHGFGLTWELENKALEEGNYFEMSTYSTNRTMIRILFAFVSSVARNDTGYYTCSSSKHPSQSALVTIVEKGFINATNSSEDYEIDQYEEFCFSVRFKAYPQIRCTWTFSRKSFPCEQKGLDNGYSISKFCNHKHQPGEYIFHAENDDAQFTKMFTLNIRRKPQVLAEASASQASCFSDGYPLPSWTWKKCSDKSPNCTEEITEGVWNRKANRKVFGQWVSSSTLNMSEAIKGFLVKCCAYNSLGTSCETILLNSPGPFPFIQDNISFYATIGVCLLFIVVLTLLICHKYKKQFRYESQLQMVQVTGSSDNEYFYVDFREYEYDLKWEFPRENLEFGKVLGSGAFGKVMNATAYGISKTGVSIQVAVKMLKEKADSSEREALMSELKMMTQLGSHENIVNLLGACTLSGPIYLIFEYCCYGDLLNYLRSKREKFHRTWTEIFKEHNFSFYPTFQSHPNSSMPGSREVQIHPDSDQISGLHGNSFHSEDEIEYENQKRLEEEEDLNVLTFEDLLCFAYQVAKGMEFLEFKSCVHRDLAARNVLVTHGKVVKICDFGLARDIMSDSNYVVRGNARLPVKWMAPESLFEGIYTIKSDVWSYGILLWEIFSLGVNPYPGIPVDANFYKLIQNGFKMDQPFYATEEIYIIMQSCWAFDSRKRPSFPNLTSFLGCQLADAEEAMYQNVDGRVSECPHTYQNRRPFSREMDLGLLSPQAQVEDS
Nature of the data set: radioisotope-based P81 filter-binding assay, FLT-3 kinase. As to conditions: averaged from two independent dose-response curves; read-out: Enzyme assay IC50 FLT-3. The class given is biochemical. On the procedure: (§1) Compounds of formula (I)-(IV) were evaluated for abilities in inhibiting protein kinases aurora B and FLT-3 activity using radioisotope-based P81 filter-binding assay (Table 1).

Data set [4] addresses aurora B (Homo sapiens, UniProt Q96GD4). As to the kind of experiment: radioisotope-based P81 filter-binding assay, aurora B kinase. The format is biochemical. As to conditions: averaged from two independent dose-response curves; read-out: Enzyme assay IC50 Aur B. On the procedure:
as §1

aurora B, sequence (Q96GD4 whole entry): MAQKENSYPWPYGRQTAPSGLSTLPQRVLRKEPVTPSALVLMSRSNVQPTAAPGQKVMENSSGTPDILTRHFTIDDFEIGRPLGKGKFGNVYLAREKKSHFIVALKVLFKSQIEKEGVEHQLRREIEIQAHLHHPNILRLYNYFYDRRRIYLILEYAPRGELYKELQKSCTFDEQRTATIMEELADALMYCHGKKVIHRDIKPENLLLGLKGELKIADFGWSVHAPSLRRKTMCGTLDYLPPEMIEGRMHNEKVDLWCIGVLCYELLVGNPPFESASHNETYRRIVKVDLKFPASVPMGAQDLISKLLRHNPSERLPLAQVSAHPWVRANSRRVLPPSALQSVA

Usually IC50 stands for the concentration needed to halve the response being measured. For the compound `COc1ccc(C(=O)NC(=O)Nc2ccc3c(c2)NC(=O)/C3=C\c2ccc[nH]2)cc1` [D15], the IC50 in data set [1] was 0.00613 µM; in data set [2], 0.96 ± 0.03 µM; in data set [3], 0.334 µM; in data set [4] it was 0.0149 µM.
By melting point is commonly meant the temperature, or range, at which the solid turns liquid. As to `O=C(NC(=O)c1ccccc1)Nc1ccc2c(c1)NC(=O)/C2=C\c1ccc[nH]1` [D24, (Z)—N-(3-((1H-pyrrol-2-yl)methylene)-2-oxoindolin-6-ylcarbamoyl)benzamide], the melting point was 290 to 295 °C (dec.). Moreover, in data set [2], the half-maximal inhibitory concentration (IC50) was determined as 0.89 ± 0.03 µM. Moreover, in data set [3], the IC50 was greater than 10 µM. In addition, the IC50 in data set [4] was found to be 0.0053 µM.
For `O=C(NC(=O)c1ccc(C(F)(F)F)cc1)Nc1ccc2c(c1)NC(=O)/C2=C\c1ccc[nH]1` [D27, (Z)—N-(3-((1H-pyrrol-2-yl)methylene)-2-oxoindolin-6-ylcarbamoyl)-4-(trifluoromethyl)benzamide] the same measures were greater than 300 °C, 0.86 ± 0.02 µM, greater than 1 µM and 0.0409 µM.
On to `Cc1ccc(C(=O)NC(=O)Nc2ccc3c(c2)NC(=O)/C3=C\c2ccc[nH]2)cc1` [D29, (Z)—N-(3-((1H-pyrrol-2-yl)methylene)-2-oxoindolin-6-ylcarbamoyl)-4-methylbenzamide], for which the melting point is 290 to 295 °C (dec.). Moreover, the half-maximal inhibitory concentration (IC50) in data set [2] stood at 0.93 ± 0.01 µM. The IC50 in data set [3] was greater than 1 µM. The half-inhibitory concentration (IC50) in data set [4] stood at 0.0184 µM.
Regarding `COc1cc(OC)cc(C(=O)NC(=O)Nc2ccc3c(c2)NC(=O)/C3=C\c2ccc[nH]2)c1` [D30], the melting point is 276 to 281 °C (dec.). The half-maximal inhibitory concentration (IC50) in data set [2] amounted to 0.86 ± 0.02 µM. Further, the 50% inhibitory concentration (IC50) in data set [4] was determined as 0.0298 µM.
`CN(C)c1ccc(C(=O)NC(=O)Nc2ccc3c(c2)NC(=O)/C3=C\c2ccc[nH]2)cc1` [D31, (Z)—N-(3-((1H-pyrrol-2-yl)methylene)-2-oxoindolin-6-ylcarbamoyl)-4-(dimethylamino)benzamide]: the melting point was 285 to 290 °C (dec.). Further, in data set [2], the half-maximal inhibitory concentration (IC50) turned out to be 0.63 ± 0.02 µM. In addition, the concentration for half-maximal inhibition (IC50) in data set [3] is 0.134 µM. Further, in data set [4], the IC50 is 0.159 µM.
For `Cc1[nH]c(/C=C2\C(=O)Nc3cc(NC(=O)NC(=O)c4ccc(Cl)cc4)ccc32)c(C)c1C(=O)O` [D33, (Z)-5-((6-(3-(4-chlorabenzoyl)ureido)-2-oxoindolin-3-ylidene)-methyl)-2,4-dimethyl-1H-pyrrole-3-carboxylic acid] the same measures were greater than 300 °C, 0.65 ± 0.05 µM, 0.506 µM and 0.0031 µM.
`Cc1[nH]c(/C=C2\C(=O)Nc3cc(NC(=O)NC(=O)c4ccc(Cl)c(C(F)(F)F)c4)ccc32)c(C)c1C(=O)O` [D36, (Z)-5-((6-(3-(4-chloro-3-(trifluoromethyl)benzoyl)ureido)-2-oxoindolin-3-ylid-ene)methyl)-2,4-dimethyl-1H-pyrrol-3-carboxylic acid] returned a melting point of 270 to 275 °C. Besides, the half-inhibitory concentration (IC50) in data set [2] stood at 0.12 ± 0.07 µM. Further, in data set [3], the IC50 was 0.0516 µM. Also, the 50% inhibitory concentration (IC50) in data set [4] turned out to be 0.0107 µM.
In the case of `Cc1[nH]c(/C=C2\C(=O)Nc3cc(NC(=O)NC(=O)c4ccc(Cl)c(C(F)(F)F)c4)ccc32)c(C)c1CCC(=O)O` [D37, (Z)-3-(5-((6-(3-(4-chloro-3-(trifluoromethyl)benzoyl)ureido)-2-oxo-indolin-3-ylidene)methyl)-2,4-dimethyl-1H-pyrrol-3-yl)propanoic acid], the IC50 in data set [2] was found to be 0.09 ± 0.04 µM; in data set [3], 0.0024 µM; in data set [4], 0.0016 µM.
Consider `Cc1[nH]c(/C=C2\C(=O)Nc3cc(NC(=O)c4cccn(-c5ccc(F)cc5)c4=O)ccc32)c(C)c1CC(=O)O` [D121, (Z)-2-(5-((6-(1-(4-fluorophenyl)-2-oxo-1,2-dihydropyridine-3-carboxamido)-2-oxoindolin-3-ylidene)methyl)-2,4-dimethyl-1H-pyrrol-3-yl)acetic acid], for which the melting point is 275 °C (dec.). The IC50 in data set [1] stood at 0.00303 µM. In data set [3], the concentration for half-maximal inhibition (IC50) is 0.0073 µM. The IC50 in data set [4] came out at 0.005 µM.
For `Cc1[nH]c(/C=C2\C(=O)Nc3cc(NC(=O)c4cccn(-c5ccc(F)cc5)c4=O)ccc32)c(C)c1CCC(=O)O` [D122] the same measures were greater than 300 °C, 0.0158 µM, 0.0035 µM and 0.0055 µM.
The compound `COC(=O)CCc1c(C)[nH]c(/C=C2\C(=O)Nc3cc(NC(=O)c4cccn(-c5ccc(F)cc5)c4=O)ccc32)c1C` [D123, (Z)-methyl-3-(5-((6-(1-(4-fluorophenyl)-2-oxo-1,2-dihydropyridine-3-carboxamido)-2-oxoindolin-3-ylidene)methyl)-2,4-dimethyl-1H-pyrrol-3-yl)propanoate] displayed a melting point of 266 to 270 °C. In addition, the IC50 in data set [1] turned out to be 0.00156 µM. Further, the IC50 in data set [3] worked out at 0.0452 µM. Besides, the 50% inhibitory concentration (IC50) in data set [4] was 0.238 µM.
For `O=C1Nc2cc(NC(=O)c3c[nH]cc(-c4ccc(F)cc4)c3=O)c(F)cc2/C1=C/c1ccc[nH]1` [D137, (Z)—N-(3-((1H-pyrrol-2-yl)methylene)-5-fluoro-2-oxoindolin-6-yl)-5-(4-fluorophenyl)-4-oxo-1,4-dihydropyridine-3-carboxamide] the same measures were greater than 300 °C, 0.00097 µM, 0.0379 µM and 0.237 µM.
Take `Cc1[nH]c(/C=C2\C(=O)Nc3cc(NC(=O)c4c[nH]cc(-c5ccc(F)cc5)c4=O)ccc32)c(C)c1C(=O)O` [D141, (Z)-5-((6-(5-(4-fluorophenyl)-4-oxo-1,4-dihydropyridine-3-carboxamido)-2-oxoindolin-3-ylidene)methyl)-2,4-dimethyl-1H-pyrrole-3-carboxylic acid]: the melting point turned out to be 283 °C. In data set [1], this compound returned an IC50 of 0.00081 µM. Moreover, in data set [3], the IC50 turned out to be 0.0029 µM. In addition, the 50% inhibitory concentration (IC50) in data set [4] amounted to 0.0035 µM.
Regarding `Cc1[nH]c(/C=C2\C(=O)Nc3cc(NC(=O)c4c[nH]cc(-c5ccc(F)cc5)c4=O)ccc32)c(C)c1CC(=O)O` [D144, (Z)-2-(5-((6-(5-(4-fluorophenyl)-4-oxo-1,4-dihydropyridine-3-carboxamido)-2-oxoindolin-3-ylidene)methyl)-2,4-dimethyl-1H-pyrrol-3-yl)acetic acid], the melting point was greater than 300 °C. For the same compound, the concentration for half-maximal inhibition (IC50) in data set [1] was found to be 0.0228 µM. Further, the concentration for half-maximal inhibition (IC50) in data set [3] turned out to be 0.0013 µM. Moreover, in data set [4], the concentration for half-maximal inhibition (IC50) was 0.0023 µM.
For `Cc1[nH]c(/C=C2\C(=O)Nc3cc(NC(=O)c4c[nH]cc(-c5ccc(F)cc5)c4=O)ccc32)c(C)c1CCC(=O)O` [D145, (Z)-3-(5-((6-(5-(4-fluorophenyl)-4-oxo-1,4-dihydropyridine-3-carboxamido)-2-oxoindolin-3-ylidene)methyl)-2,4-dimethyl-1H-pyrrol-3-yl)propanoic acid] the same measures were greater than 300 °C, 0.00945 µM, 0.0016 µM and 0.0034 µM.
For `COc1ccc(-c2c[nH]cc(C(=O)Nc3ccc4c(c3)NC(=O)/C4=C\c3[nH]c(C)c(C(=O)N4CCOCC4)c3C)c2=O)cc1` [D155, (Z)—N-(3-((3,5-dimethyl-4-(morpholine-4-carbonyl)-1H-pyrrol-2-yl)methylene)-2-oxoindolin-6-yl)-5-(4-methoxyphenyl)-4-oxo-1,4-dihydropyridine-3-carboxamide] the same measures were 205 °C (dec.), 0.00196 µM, 0.0349 µM and 0.0428 µM.
For `COc1ccc(-c2c[nH]cc(C(=O)Nc3ccc4c(c3)NC(=O)/C4=C\c3[nH]c(C)c(C(=O)NCCN4CCCC4)c3C)c2=O)cc1` [D156, (Z)—N-(3-((3,5-dimethyl-4-((2-(pyrrolidin-1-yl)ethyl)carbamoyl)-1H-pyrrol-2-yl)methylene)-2-oxoindolin-6-yl)-5-(4-methoxyphenyl)-4-oxo-1,4-dihydropyridine-3-carboxamide], in that order: greater than 300 °C, 0.00257 µM, 0.0116 µM and 0.0192 µM.
